Values belong to the compound of their own block, whether it stands above or below them.
What was measured:
healthy volunteers = conditions: two weeks clinical trials in healthy volunteers; cited from earlier work
cynomolgus monkeys = conditions: cited from earlier work
rhesus monkeys = conditions: cited from earlier work
human PPARdelta = molecular target: T1, human PPARdelta (Homo sapiens, UniProt Q03181); experiment: cellular PPARdelta assay (stably transfected HEK luciferase reporter cell line); format: cell-based
T1 construct: amino acids S139-Y441; expressed in transfected cells; host or cells: HEK (human embryo kidney) cells, stably transfected, pcDNA3 vector
T1 sequence (Q03181 139-441): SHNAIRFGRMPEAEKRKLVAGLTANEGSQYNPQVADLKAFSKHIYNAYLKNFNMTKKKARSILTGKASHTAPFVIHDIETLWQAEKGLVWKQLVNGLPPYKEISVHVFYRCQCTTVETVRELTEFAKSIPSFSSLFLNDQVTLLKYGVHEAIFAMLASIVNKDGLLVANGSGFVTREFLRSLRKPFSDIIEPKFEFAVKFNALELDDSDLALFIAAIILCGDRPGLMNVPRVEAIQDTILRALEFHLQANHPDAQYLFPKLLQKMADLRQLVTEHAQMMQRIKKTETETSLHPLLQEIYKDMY
Description: The potency of substances which bind to human PPARdelta and activate it in an agonistic manner is analyzed using a stably transfected HEK cell line (HEK=human embryo kidney) which is referred to here as PPARdelta reporter cell line. In analogy to the assay described for PPARalpha, the PPARdelta reporter cell line also contains two genetic elements, a luciferase reporter element (pdeltaM-GAL4-Luc-Zeo) and a PPARdelta fusion protein (GR-GAL4-humanPPARdelta-LBD) which mediates expression of the luciferase reporter element depending on a PPARdelta ligand. The stably and constitutively expressed fusion protein GR-GAL4-humanPPARdelta-LBD binds in the cell nucleus of the PPARdelta reporter cell line via the GAL4 protein portion to the GAL4 DNA binding motifs 5′-upstream of the luciferase reporter element which is stably integrated in the genome of the cell line. There is only little expression of the luciferase reporter gene in the absence of a PPARdelta ligand if fatty acid-depleted fetal calf serum (cs-FCS) is used in the assay. PPARdelta ligands bind and activate the PPARdelta fusion protein and thereby stimulate expression of the luciferase reporter gene. The luciferase which is formed can be detected by means of chemiluminescence via an appropriate substrate.
The production of the stable PPARdelta reporter cell line is based on a stable HEK-cell clone which was stably transfected with a luciferase reporter element. This step was already described above in the section “construction of the PPARalpha reporter cell line”. In a second step, the PPARdelta fusion protein (GR-GAL4-humanPPARdelta-LBD was stably introduced into this cell clone. For this purpose, the cDNA coding for the N-terminal 76 amino acids of the glucocorticoid receptor (Accession #P04150) was linked to the cDNA section coding for amino acids 1-147 of the yeast transcription factor GAL4 (Accession #P04386). The cDNA of the ligand-binding domain of the human PPARdelta receptor (amino acids S139-Y441; Accession #L07592) was cloned in at the 3′-end of this GR-GAL4 construct. The fusion construct prepared in this way (GR-GAL4-humanPPARdelta-LBD) was recloned into the plasmid pcDNA3 (Invitrogen) in order to enable constitutive expression by the cytomegalovirus promoter. This plasmid was linearized with a restriction endonuclease and stably transfected into the previously described cell clone containing the luciferase reporter element. The resulting PPARdelta reporter cell line which contains a luciferase reporter element and constitutively expresses the PPARdelta fusion protein (GR-GAL4-human PPARdelta-LBD) was isolated by selection with zeocin (0.5 mg/ml) and G418 (0.5 mg/ml).
The activity of PPARdelta agonists is determined in a 3-day assay in exact analogy to the procedure already described for the PPARalpha reporter cell line except that the PPARdelta reporter cell line and a specific PPARdelta agonist was used as a standard to control test efficacy. […] Compounds of the invention of the formula I activate the PPARdelta receptor.

[1] = tested on: obese, insulin resistant rhesus monkeys; conditions: cited from earlier work
diabetic animal model = conditions: cited from earlier work

Compound: CCCc1c(OCCCSc2nnc(SCC(=O)O)s2)ccc(C(C)=O)c1O [YM-16638]
plasma lipids (healthy volunteers): acts in a similar manner
plasma lipids (cynomolgus monkeys): significantly lowers plasma lipids
plasma lipids (rhesus monkeys): significantly lowers plasma lipids

EC50 (human PPARdelta): 480 nM
Compound: COc1ccc2oc(COc3ccc(S(=O)(=O)Nc4nnc(C(C)C)s4)cc3)cc2c1 [Example 12, N-(5-Isopropyl-[1,3,4]thiadiazol-2-yl)-4-(5-methoxy-benzofuran-2-ylmethoxy)-benzenesulfonamide]

Compound: Cc1cc(SCc2sc(-c3ccc(C(F)(F)F)cc3)nc2C)ccc1OCC(=O)O [GW501516]
HDL-cholesterol [1]: raises HDL-cholesterol
plasma LDL-cholesterol [1]: decreases plasma LDL-cholesterol
insulin levels ([1]; plasma): decreases
triglycerides ([1]; plasma): decreases

Compound: CCCc1c(OCCCOc2ccc(OCC(=O)O)cc2)ccc(C(C)=O)c1O [Example L-165041]
plasma cholesterol (diabetic animal model): raises plasma cholesterol

From patent US7910612B2, “4-oxy-N-[1,3,4]-thiadiazol-2-yl-benzene sulfonamides, pharmaceutical compositions and methods for their therapeutic use” (Sanofi-Aventis, priority 2005, dated 2011)
